Laboratory results reported in patent publication US12428412B2 (DANA-FARBER CANCER INSTITUTE, INC., priority 2018, dated 2025).

What was measured:
HAT (EP300) domain = biological target: T1, HAT (EP300) domain (Homo sapiens, UniProt Q09472); test: AlphaScreen assay, HAT (EP300) domain; assay type: binding
T1 sequence (Q09472 1287-1663 limits assumed): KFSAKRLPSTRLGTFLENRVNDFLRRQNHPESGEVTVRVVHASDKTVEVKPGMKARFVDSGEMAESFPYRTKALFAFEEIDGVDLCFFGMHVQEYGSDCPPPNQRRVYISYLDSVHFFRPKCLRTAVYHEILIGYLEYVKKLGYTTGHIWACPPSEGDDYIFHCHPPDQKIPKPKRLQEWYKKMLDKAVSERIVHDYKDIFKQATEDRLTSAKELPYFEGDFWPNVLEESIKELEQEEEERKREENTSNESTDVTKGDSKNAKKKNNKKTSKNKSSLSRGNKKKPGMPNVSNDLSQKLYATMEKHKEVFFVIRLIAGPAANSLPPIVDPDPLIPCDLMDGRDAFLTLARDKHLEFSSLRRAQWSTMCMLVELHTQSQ
Description: The AlphaScreen™ assay was performed in 384-well plate format using white AlphaPlate (PerkinElmer®, USA), and transfer of pre-diluted compound (100 nL) was performed using a Janus Workstation (PerkinElmer®, USA). All subsequent steps were carried out in assay buffer (50 mM 4-(2-hydroxyethyl)-1-piperazineethanesulfonic acid (HEPES), pH 7.5, 0.1% (wt/vol) bovine serum albumin (BSA) and 0.01% (vol/vol) Tween-20). In brief, 10 μL of assay buffer containing enzyme (2 nM Final) was pre-incubated for 15 min with dilutions of compound. The enzyme reaction was initiated by the addition of substrate (5 μL) consisting of acetyl Co-A 2-OG (5 μM Final).
FAS final concentration was 10 μM. Histone tail-GGK Biotin final concentration was 100 nM Final. The enzyme reaction was allowed to proceed for 30 minutes and was stopped by the addition of 5 μL of assay buffer containing ethylenediaminetetraacetic acid (EDTA) (40 mM) and NaCl (1200 mM). The final concentration of dimethyl sulfoxide (DMSO) was 1%. Streptavidin donor beads (0.08 mg/mL) and protein-A-conjugated acceptor beads (0.08 mg/mL) were preincubated for 1 h with antibody to methyl mark (300 ng/mL Final), and the presence of histone H3 product acetylation mark was detected using the preincubated AlphaScreen™ beads (5 μL). Detection was allowed to proceed for 2 hours at rt, and the assay plates were read on the Envision™ 2104 plate reader. Data were normalized to the (no-enzyme) control, and the IC50 values were determined via nonlinear regression curve fit using GraphPad Prism (FIG. 4E-FIG. 4H).
AlphaScreen™ assay was used to determine the binding of inventive degrader compound toward both CRBN and HAT domain. The experimental protocol is the same as in Example 26.

Kelly cells = test: Colony formation assay, Kelly cells; assay type: cell-based; details: 10 days
Description: The experimental method for the colony formation assay is as described in Durbin et al., Nat Genet. 50(9):1240-60 (2018).

CBP [1] = biological target: T2, CBP (Homo sapiens, UniProt Q92793); test: Immunoblot in CRBN knockout Kelly cell lines, CBP; assay type: cell-based; details: CRBN-1 and CRBN-3 Kelly lines, 500 nM
T2 construct: endogenous in cells; host or cells: Kelly neuroblastoma cells (incl. Ch2.2, LACZ and CRBN knockout lines)
T2 sequence (Q92793 whole entry): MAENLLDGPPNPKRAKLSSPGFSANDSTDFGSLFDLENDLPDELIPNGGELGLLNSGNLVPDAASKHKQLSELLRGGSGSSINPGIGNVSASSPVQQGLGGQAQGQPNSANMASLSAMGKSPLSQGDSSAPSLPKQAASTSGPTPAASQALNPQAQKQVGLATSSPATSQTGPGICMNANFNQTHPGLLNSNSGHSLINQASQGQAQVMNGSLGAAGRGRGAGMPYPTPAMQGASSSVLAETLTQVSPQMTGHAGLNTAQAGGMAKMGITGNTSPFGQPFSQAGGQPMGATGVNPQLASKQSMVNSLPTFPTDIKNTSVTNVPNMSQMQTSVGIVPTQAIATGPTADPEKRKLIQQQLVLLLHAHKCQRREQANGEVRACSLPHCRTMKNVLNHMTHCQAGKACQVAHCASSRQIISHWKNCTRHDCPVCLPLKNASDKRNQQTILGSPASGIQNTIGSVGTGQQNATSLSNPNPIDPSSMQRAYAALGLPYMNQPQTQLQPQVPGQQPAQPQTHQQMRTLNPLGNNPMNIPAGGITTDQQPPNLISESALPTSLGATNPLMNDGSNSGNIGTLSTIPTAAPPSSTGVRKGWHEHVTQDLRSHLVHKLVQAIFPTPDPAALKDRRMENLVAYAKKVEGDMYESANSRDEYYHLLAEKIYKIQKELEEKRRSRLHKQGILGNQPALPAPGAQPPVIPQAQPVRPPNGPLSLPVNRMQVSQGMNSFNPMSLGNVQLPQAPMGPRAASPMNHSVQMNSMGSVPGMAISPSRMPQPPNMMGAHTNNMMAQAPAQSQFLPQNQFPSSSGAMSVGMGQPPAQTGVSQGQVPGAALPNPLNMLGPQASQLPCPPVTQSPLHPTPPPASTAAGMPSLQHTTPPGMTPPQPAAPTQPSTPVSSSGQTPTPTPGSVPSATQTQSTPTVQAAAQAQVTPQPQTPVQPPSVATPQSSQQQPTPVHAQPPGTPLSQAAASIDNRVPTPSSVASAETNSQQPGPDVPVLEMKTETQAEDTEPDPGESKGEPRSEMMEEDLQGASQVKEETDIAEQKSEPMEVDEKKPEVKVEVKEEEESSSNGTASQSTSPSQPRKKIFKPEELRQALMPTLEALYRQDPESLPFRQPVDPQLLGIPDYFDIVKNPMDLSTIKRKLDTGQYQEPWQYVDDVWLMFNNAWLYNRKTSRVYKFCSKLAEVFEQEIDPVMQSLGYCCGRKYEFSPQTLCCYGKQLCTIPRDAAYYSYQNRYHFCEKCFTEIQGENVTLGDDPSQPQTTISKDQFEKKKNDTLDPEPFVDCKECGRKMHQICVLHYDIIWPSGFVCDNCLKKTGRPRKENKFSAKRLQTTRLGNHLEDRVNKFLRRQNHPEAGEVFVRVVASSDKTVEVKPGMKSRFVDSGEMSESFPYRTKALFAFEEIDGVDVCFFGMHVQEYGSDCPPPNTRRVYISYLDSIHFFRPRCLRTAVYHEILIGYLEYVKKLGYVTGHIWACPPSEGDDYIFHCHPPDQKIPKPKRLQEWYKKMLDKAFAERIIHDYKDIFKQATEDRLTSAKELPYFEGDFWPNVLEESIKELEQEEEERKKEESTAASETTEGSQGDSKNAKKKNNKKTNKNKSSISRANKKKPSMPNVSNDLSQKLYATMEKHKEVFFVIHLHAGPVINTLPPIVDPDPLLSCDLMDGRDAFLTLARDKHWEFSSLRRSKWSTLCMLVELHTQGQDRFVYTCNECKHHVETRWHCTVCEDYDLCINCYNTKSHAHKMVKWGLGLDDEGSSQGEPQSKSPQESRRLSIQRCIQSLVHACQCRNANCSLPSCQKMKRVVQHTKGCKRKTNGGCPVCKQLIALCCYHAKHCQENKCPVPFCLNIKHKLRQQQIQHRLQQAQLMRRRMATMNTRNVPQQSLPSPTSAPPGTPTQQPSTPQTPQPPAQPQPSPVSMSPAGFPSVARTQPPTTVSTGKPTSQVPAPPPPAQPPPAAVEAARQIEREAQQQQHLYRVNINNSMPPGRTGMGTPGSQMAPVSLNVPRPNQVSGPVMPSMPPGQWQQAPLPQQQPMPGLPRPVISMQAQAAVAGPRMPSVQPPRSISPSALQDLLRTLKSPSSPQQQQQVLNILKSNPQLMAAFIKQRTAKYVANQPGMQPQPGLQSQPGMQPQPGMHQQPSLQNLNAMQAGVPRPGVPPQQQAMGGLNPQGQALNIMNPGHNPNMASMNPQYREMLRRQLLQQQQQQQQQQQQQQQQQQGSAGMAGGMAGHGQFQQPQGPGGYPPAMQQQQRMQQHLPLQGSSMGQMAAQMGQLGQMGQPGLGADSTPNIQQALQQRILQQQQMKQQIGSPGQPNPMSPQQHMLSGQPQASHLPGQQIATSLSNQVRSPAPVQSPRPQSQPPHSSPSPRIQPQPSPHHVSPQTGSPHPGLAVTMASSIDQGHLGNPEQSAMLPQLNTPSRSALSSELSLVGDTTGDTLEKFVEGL
Description: CPD 1 was tested in CRBN knockout (k/o) Kelly cell lines. The experimental protocol is the same as in Example 24.

[2] = Mouse PK after intraperitoneal injection, blood concentration by LCMS/MS; assay type: in vivo; details: IP 10 mg/kg, male CD1 mice
Description: The compound concentration in animal blood was measured by LCMS/MS through a series bleeding at different time points. […] A-485 half life is 0.7 h in mice.
(§1) Maximum tolerance dose (MTD) of each candidate was determined in zebrafish embryos. 3-day-old zebrafish embryos were exposed to different drug concentrations and monitored for adverse health effects. […] Experiments were first carried out with compound CPD 1 as a guide in the further design of MTD assessment of lead EP300 degraders (FIG. 6B). The MTD of the degrader is also determined in mice in the similar manor. Briefly, mice were dosed with test compounds and blood and plasma is isolated at specific intervals post-administration (0.083, 0.25, 0.5, 1, 2, 4, 8, 12, and 24 h) and quantified for the presence of test article by LC/MS/MS (n=5 mice/compound). In vivo mouse PK experiments were used to determine these parameters and inform iterative rounds of medicinal chemistry for optimization of EP300 degraders (FIG. 6A). As degraders have a relatively large molecular weight, the proper formulation is investigated to increase the solubility and stability of the degraders for in vivo study. Together, these parameters, including the established MTD, are used to guide the in vivo study design, such as administration method, dosing, and schedule for the following experiment. The information obtained was also used to guide the degrader optimization conducted in Example 36.

NB zebra fish model = test: NB zebra fish model; assay type: in vivo
Description: as §1

[3] = Maximum tolerated dose (MTD) study in mice; assay type: in vivo; details: mice, 10, 20 and 40 mg/kg
Description: (§2) CPD 1 was tested in mice for maximum tolerated dose (MTD) (FIG. 6A). The mice were treated with 10 mg/kg (mpk), 20 mpk, and 40 mpk with 4 mice in each group. The compound was also tested in human CRBN knock in mice, the blood samples were collected after 21 day treatment. All the tested blood samples were normal.

[4] = Tolerability in human CRBN knock in mice; assay type: in vivo
Description: as §2

EP300 = biological target: T3, EP300 (Mus musculus, UniProt B2RWS6); test: Immunohistochemistry (IHC) staining of liver from MTD study, EP300; assay type: in vivo; details: normal mice, 40 mpk, 14-day treatment
T3 construct: from tissue; host or cells: mouse liver (CD1 mice)
Description: (§3) Immunohistochemistry (IHC) staining was used to examine a liver from MTD study. […] No changes in CBP and H3K27Ac levels were observed.

CBP [5] = biological target: T4, CBP (Mus musculus, UniProt P45481); test: Immunohistochemistry (IHC) staining of liver from MTD study, CBP; assay type: in vivo; details: normal mice, 40 mpk, 14-day treatment
T4 construct: from tissue; host or cells: mouse liver (CD1 mice)
T4 sequence (P45481 whole entry): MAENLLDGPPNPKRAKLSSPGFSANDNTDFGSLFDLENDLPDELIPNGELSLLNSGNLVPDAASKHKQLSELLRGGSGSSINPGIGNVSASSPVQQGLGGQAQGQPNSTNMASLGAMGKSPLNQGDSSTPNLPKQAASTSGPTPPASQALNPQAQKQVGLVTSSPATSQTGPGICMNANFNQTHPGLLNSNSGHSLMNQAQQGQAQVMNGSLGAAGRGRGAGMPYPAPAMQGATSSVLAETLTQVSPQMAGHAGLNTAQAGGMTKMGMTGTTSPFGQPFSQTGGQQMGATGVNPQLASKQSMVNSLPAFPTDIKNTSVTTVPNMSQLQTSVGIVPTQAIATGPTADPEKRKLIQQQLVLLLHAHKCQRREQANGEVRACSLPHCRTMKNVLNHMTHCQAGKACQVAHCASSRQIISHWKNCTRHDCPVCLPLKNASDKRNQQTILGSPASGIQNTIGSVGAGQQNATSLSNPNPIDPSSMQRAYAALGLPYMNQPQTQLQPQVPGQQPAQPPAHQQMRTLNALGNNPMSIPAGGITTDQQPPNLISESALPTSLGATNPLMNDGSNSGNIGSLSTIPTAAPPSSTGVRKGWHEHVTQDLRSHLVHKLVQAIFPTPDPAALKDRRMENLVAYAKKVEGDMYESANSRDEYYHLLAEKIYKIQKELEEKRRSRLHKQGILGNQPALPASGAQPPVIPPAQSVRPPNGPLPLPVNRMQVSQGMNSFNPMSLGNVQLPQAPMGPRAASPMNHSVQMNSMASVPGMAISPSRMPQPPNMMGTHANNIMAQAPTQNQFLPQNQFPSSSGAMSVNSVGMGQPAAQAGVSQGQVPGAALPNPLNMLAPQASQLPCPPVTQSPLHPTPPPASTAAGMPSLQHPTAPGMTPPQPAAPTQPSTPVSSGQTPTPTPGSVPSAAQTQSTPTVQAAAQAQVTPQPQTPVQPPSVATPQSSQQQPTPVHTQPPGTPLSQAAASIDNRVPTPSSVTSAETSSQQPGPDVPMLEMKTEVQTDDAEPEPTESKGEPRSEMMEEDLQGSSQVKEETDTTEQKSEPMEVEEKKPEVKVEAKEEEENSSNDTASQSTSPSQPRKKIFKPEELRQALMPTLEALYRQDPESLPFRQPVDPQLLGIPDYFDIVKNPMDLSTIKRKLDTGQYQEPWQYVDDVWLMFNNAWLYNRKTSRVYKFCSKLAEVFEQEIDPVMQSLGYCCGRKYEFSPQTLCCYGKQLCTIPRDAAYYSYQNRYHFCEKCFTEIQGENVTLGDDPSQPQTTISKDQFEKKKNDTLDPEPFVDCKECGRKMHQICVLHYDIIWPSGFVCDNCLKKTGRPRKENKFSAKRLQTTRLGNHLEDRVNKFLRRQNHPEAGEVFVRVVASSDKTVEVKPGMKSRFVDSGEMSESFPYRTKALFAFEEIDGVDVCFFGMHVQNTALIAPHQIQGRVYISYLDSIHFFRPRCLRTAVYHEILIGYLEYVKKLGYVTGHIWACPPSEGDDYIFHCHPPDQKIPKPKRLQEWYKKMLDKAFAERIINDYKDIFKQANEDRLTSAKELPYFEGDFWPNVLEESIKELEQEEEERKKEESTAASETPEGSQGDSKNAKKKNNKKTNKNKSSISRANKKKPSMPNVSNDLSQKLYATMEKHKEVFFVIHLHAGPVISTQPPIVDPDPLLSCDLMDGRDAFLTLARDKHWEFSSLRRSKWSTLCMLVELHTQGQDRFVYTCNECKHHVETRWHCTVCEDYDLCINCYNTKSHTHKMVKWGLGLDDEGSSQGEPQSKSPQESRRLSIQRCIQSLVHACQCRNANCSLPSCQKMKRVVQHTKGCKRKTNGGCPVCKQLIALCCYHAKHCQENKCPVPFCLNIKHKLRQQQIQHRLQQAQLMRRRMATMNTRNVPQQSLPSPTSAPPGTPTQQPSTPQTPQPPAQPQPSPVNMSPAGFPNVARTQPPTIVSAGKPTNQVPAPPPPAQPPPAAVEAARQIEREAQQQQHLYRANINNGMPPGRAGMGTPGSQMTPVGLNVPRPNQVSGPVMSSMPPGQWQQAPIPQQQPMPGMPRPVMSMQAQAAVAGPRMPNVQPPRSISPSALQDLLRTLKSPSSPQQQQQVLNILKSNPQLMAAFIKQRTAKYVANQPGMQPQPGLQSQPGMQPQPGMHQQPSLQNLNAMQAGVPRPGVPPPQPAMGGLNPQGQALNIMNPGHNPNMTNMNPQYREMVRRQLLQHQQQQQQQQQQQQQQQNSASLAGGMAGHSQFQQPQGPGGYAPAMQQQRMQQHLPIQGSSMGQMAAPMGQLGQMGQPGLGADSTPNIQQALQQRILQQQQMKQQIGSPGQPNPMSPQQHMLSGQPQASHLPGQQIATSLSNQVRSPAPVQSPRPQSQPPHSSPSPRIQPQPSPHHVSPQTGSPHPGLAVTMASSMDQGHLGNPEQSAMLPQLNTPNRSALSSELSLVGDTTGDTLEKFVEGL
Description: as §3

H3K27Ac = test: Immunohistochemistry (IHC) staining of liver from MTD study, H3K27Ac; assay type: in vivo; details: normal mice, 40 mpk, 14-day treatment
Description: as §3

[6] = tested on: Kelly cell lines xenograft; test: Xenograft model of Kelly cell lines; assay type: in vivo; details: 40 mpk IP from day 10
Description: The xenograft model of Kelly cell lines was used to assess the in vivo efficacy. The Kelly cells were implanted 2 M into animals. The treatment started with day 10 at 40 mpk IP.

For `C[C@H](N(Cc1ccc(F)cc1)C(=O)CN1C(=O)O[C@@]2(CCc3cc(NC(=O)CCCCCCCCCCCNc4ccc5c(c4)C(=O)N(C4CCC(=O)NC4=O)C5=O)ccc32)C1=O)C(F)(F)F` (stereo partly drawn) [CPD 1, 12-((2-(2,6-dioxopiperidin-3-yl)-1,3-dioxoisoindolin-5-yl)amino)-N—((R)-3′-(2-((4-fluorobenzyl)((S)-1,1,1-trifluoropropan-2-yl)amino)-2-oxoethyl)-2′,4′-dioxo-2,3-dihydrospiro[indene-1,5′-oxazolidin]-5-yl)dodecanamide], the “binding to HAT (EP300) domain” value (HAT (EP300) domain) was “bound and bind”, the “Kelly cell growth, colony formation” value (Kelly cells) was “inhibited the Kelly cell growth in a dose dependent manner” and the “CBP degradation in CRBN k/o lines” value (CBP [1]) was “did not degrade”. The “toxicity in PK study” value [2] was “No toxicity was observed”, the Cmax ([2]; mouse, whole blood, n=3) was 5 µM and the half-life ([2]; mouse, whole blood, n=3) was 13 h. For the same compound, the tumor growth inhibition (NB zebra fish model; NB zebra fish model, 0.25 μM and 0.5 μM) was “tumor growth inhibition”, the “toxicity in zebra fish study” value (NB zebra fish model; zebra fish) was “No toxicity was observed” and the body weight loss [3] was “no weight loss was observed”. For the same compound, the tolerability [3] was “well tolerated”, the blood samples ([4]; human CRBN knock in mice, after 21 day treatment) was “normal” and the toxicity ([4]; humanized CRBN mice) was “no toxicity was observed”. For the same compound, the “EP300 (P300) level in liver tissue” value (EP300) was “A drop in P300 levels was observed”, the “CBP level in liver tissue” value (CBP [5]) was “No changes” and the “H3K27Ac level in liver tissue” value (H3K27Ac) was “No changes”. The survival of animals [6] was “extended the survival of animals” and the tumor progression [6] was “reduced tumor progression”.
